# Measurements taken from patent US9676820B2, “Method for inhibiting proliferation of high LIX1L-expressing tumor cell, and tumor cell proliferation-inhibiting peptide” (National University Corporation Hamamatsu University School …, priority 2013, dated 2017).
# Experiments:
# Type in all cases: cell-based
# K562 strain = experiment: Viable cell counts (Trypan blue staining), K562 strain; conditions: 5 μM peptide, vs untreated
# Experimental: (§1) Specifically, cells plated such that the density thereof became 1×10^4 cells/3.5 cm well for one plate (6 wells/plate) for each cell strain were cultured for one night in a culture solution having the same composition as those of the culture solutions described in the reference examples. After culturing of 1 well out of the 6 wells was completed, Trypan blue staining was performed on the 1 well, and viable cell counts were counted. The remaining 5 wells were cultured after exchanging the culture solution with a liquid mixture of a Lipofectamine (registered trademark) reagent (12.5 μL/well) and a culture solution (2 mL/well) of which the shRNA concentration became 2.5 μg/well. Then, Trypan blue staining was performed on 1 well 24 hours after the exchange of a culture medium, 1 well 48 hours after the exchange of a culture medium, and the remaining 1 well 72 hours after the exchange of a culture medium, and the viable cell counts were counted. As a control, the viable cell counts were measured (untreated) by performing the culturing similarly to the above except that a culture medium was exchanged with a culture solution to which no shRNA was added.
# (§2) Specifically, the viable cell counts were measured after culturing the cells similarly to Example 1 except that a 5 μM culture solution containing a control peptide, a peptide 1, or a peptide 2 was used instead of the culture solution (2 mL/well) of which the shRNA concentration was 2.5 μg/well. The viable cell counts were measured (untreated) by performing the culturing similarly to Example 1 using a culture solution containing no peptide 2, as a control.
# KATO-III strain = experiment: MTT assay, KATO-III strain; conditions: MTT assay, 72 hours
# Experimental: (§3) Specifically, first, cells plated in a 96-well microplate such that the density thereof became 5×10^3 cells/well were cultured for one night in a culture solution having the same composition as those in the reference examples. Thereafter, the culture solution was exchanged with 100 μL of a culture solution of which the concentration of peptides is 0 μM to 100 μM for culturing for 72 hours. After the culturing, an MTT-containing PBS solution was added to the culture solution, and the mixture was incubated for 4 hours. Then, formazan which was generated by putting 100 μL of isopropanol (containing 34 (v/v) % of hydrochloric acid) into each of the wells was dissolved. The absorbance of each of the wells of the microplate at 570 nm was measured using a microplate reader. As controls, culturing was performed in the same manner except that no peptide was added to the strains, an MTT assay was performed thereon, and the absorbance at 570 nm was measured (untreated).
# OCUM-1 strain = experiment: MTT assay, OCUM-1 strain; conditions: MTT assay, 72 hours
# Experimental: as §3
# HL-60 strain = experiment: Viable cell counts (Trypan blue staining), HL-60 strain; conditions: 5 μM peptide, vs untreated
# Experimental: as §1, §2
# RPMI8226 strain = experiment: Viable cell counts (Trypan blue staining), RPMI8226 strain; conditions: 5 μM peptide, up to 72 hours, vs untreated
# Experimental: as §1, with “added. […]” for “added.”
# 136th tyrosine of LIX1L = target: T1, 136th tyrosine of LIX1L (Homo sapiens, UniProt Q8IVB5); experiment: Tyrosine phosphorylation of LIX1L by immunoprecipitation and Western blotting in 293 FLG/LIX1L cells; conditions: cultured 14 days with peptide
# T1 construct: expressed in transfected cells
# Experimental: First, a cell strain (293 FLG) in which only FLAG was forcibly expressed, a cell strain (293 FLG/LIX1L) in which a LIX1L protein with a FLAG tag was forcibly expressed, and a cell strain (293 FLG/LIX1L/PY136) in which a LIX1L protein with a FLAG tag for adding a peptide thereto was forcibly expressed were prepared through the same method as Reference Example 5, and were cultured and proliferated.
# Next, the 293 FLG/LIX1L/PY136 cells were cultured for 14 days in a culture solution containing a peptide 1 through the same method as that in Example 3. The 293 FLG cells and the 293 FLG/LIX1L cells were cultured for 14 days in the same manner as above using a culture solution containing no peptide 1.
# Next, the 293 FLG cells, the 293 FLG/LIX1L cells, and the 293 FLG/LIX1L/PY136 cells were respectively cultured in 10% FCS-containing DMEM culture media to which Hygromycin B at […] was added, for 14 days. Then, the cultured cells were separated into nuclear fractions and cytoplasm fractions using Nuclear/Cytosol Fractionation Kit (manufactured by BioVison, Inc.). Immunoprecipitation was performed on both the obtained fractions using an anti-FLAG antibody (manufactured by Sigma-Aldorich Co. LLC.) and an agarose-binding protein A (manufactured by Sigma-Aldorich Co. LLC.), protein separation was performed thereon through 12% SDS-PAGE, and the fractions were transferred to a film. […]
# 293 FLG/LIX1L = experiment: Number of colonies formed, 293 FLG/LIX1L (Example 6); conditions: peptide 25 μM, cultured for 14 days
# Experimental: Specifically, 293 FLG was plated in one plate (6 wells/plate) and 293 FLG/LIX1L was plated in two plates such that the density of the cells became 1×10^4 cells/3.5 cm well. Among these, one of the plates in which 293 FLG was plated and the plate in which 293 FLG/LIX1L was plated were cultured for 14 days in a 10% vol. % FCS-containing DMEM culture medium. The remaining one of the plates in which 293 FLG/LIX1L was plated was cultured for 14 days in a 10% vol. % FCS-containing DMEM culture medium in which the peptide 1 was made to be included such that the concentration thereof became 25 μM. Each of the wells after the culturing was observed under a microscope, and the number of colonies formed was measured.
# T1 sequence (Q8IVB5 with tags, fused parts or gaps): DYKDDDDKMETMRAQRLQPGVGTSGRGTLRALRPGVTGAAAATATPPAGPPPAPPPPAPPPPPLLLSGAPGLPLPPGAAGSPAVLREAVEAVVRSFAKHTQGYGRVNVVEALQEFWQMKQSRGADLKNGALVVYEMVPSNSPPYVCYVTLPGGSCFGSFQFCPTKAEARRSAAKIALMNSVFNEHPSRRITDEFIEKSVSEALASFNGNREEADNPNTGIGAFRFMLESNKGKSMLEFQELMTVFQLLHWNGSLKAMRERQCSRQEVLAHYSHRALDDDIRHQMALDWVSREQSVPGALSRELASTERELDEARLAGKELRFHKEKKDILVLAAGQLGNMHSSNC
smiles,measurement,setting,value
"CC(C)[C@H](NC(=O)[C@H](Cc1ccc(O)cc1)NC(=O)[C@H](CS)NC(=O)[C@@H](NC(=O)[C@H](Cc1ccc(O)cc1)NC(=O)[C@@H]1CCCN1C(=O)[C@@H]1CCCN1C(=O)[C@H](CO)NC(=O)[C@H](CC(N)=O)NC(=O)[C@H](CO)NC(=O)[C@@H]1CCCN1C(=O)CCCCCNC(=O)[C@H](CCCNC(=N)N)NC(=O)[C@H](CCCNC(=N)N)NC(=O)[C@H](CCCNC(=N)N)NC(=O)[C@H](CCC(N)=O)NC(=O)[C@H](CCCNC(=N)N)NC(=O)[C@H](CCCNC(=N)N)NC(=O)[C@H](CCCCN)NC(=O)[C@H](CCCCN)NC(=O)[C@H](CCCNC(=N)N)NC(=O)CNC(=O)[C@@H](N)Cc1ccc(O)cc1)C(C)C)C(N)=O [peptide 1, YGRKKRRQRRR-X-PSNSPPYVCYV-NH2]",viable cell counts,K562 strain; after 72 hours,very small
same,viable cell counts,K562 strain; after culturing for 24 hours,decreased
same,concentration at which a dominant effect of inhibiting the cell proliferation was recognized,KATO-III strain,greater than or equal to 25 μM
same,concentration at which a dominant effect of inhibiting the cell proliferation was recognized,OCUM-1 strain,greater than or equal to 6.25 μM
same,viable cell counts,HL-60 strain; after 72 hours,very small
same,viable cell counts,HL-60 strain; after culturing for 24 hours,decreased
same,viable cell counts,RPMI8226 strain,the same as those in the untreated case
same,phosphorylation of the 136th tyrosine of LIX1L,136th tyrosine of LIX1L; cytoplasm fraction of 293 FLG/LIX1L/PY136 cell,significantly inhibited
same,phosphorylation of the 136th tyrosine of LIX1L,136th tyrosine of LIX1L; nuclear fraction of 293 FLG/LIX1L/PY136 cell,slightly inhibited
same,number of colonies formed,293 FLG/LIX1L,inhibited
